The text below walks through data of US20190119251A1, “AMIDE-SUBSTITUTED ARYLTRIAZOLE DERIVATIVES AND USES THEREOF” (BAYER PHARMA AKTIENGESELLSCHAFT, priority 2016, published 2019).

SMILES strings stand for the structures.

The target in one test is T1, human V1a receptor (Homo sapiens, UniProt P37288).
T1 construct: expressed in transfected cells; host or cells: CHO K1 (Chinese hamster ovary), also stably transfected with modified aequorin
Description: Cellular in vitro assay for determining vasopressin receptor activity (V1a cell line, aequorin luminescence). It counts as cell-based. Conditions: for IC50: CHO cell line transfected with the human V1a receptor, agonist [Arg8]-vasopressin at EC50 concentration, read-out: IC50 hV1a; for ratio IC50 hV2/hV1a: ratio of cellular IC50 values, human V2 over human V1a. How it is done: (§1) B-1. Cellular In Vitro Assay for Determining Vasopressin Receptor Activity
(§2) The identification of agonists and antagonists of the V 1 a and V2 vasopressin receptors from humans, rats and dogs as well as the quantification of the activity of the compounds of the invention is carried out using recombinant cell lines. These cell lines originally derive from a hamster's ovary epithelial cell (Chinese Hamster Ovary, CHO K1, ATCC: American Type Culture Collection, Manassas, Va. 20108, USA). The test cell lines constitutively express the human, rat or dog
(§3) V1 a or V2 receptors. In case of the Gag-coupled V 1 a receptors, cells are also stably transfected with a modified form of the calcium-sensitive photoproteins aequorin (human and rat V1a) or obelin (dog V 1 a), which, after reconstitution with the cofactor coelenterazine, emit light when there are increases in free calcium concentrations [Rizzuto R, Simpson A W, Brini M, Pozzan T, Nature 358, 325-327 (1992); Illarionov B A, Bondar V S, Illarionova V A, Vysotski E S, Gene 153 (2), 273-274 (1995)]. The resulting vasopressin receptor cells react to stimulation of the recombinantly expressed V 1 a receptors by intracellular release of calcium ions, which can be quantified by the resulting photoprotein luminescence. The Gs-coupled V2 receptors are stably transfected into cell lines expressing the gene for firefly luciferase under control of a CRE-responsible promoter. Activation of V2 receptors induces the activation of the CRE-responsive promoter via cAMP increase, thereby inducing the expression of firefly luciferase. The light emitted by photoproteins of V1a cell lines as well as the light emitted by firefly luciferase of V2 cell lines corresponds to the activation or inhibition of the respective vasopressin receptor. The bioluminescence of the cell lines is detected using a suitable luminometer [Milligan G, Marshall F, Rees S, Trends in Pharmacological Sciences 17, 235-237 (1996)].
Vasopressin V1a Receptor Cell Lines:
On the day before the assay, the cells are plated out in culture medium (DMEM/F12, 2% FCS, 2 mM glutamine, 10 mM HEPES, 5 μg/ml coelenterazine) in 384-well microtiter plates and kept in a cell incubator (96% humidity, 5% v/v CO2, 37° C.). On the day of the assay, test compounds in various concentrations are placed for 10 minutes in the wells of the microtiter plate before the agonist [Arg^8]-vasopressin at EC50 concentration is added. The resulting light signal is measured immediately in a luminometer.
(§4) Table 1A below lists individual IC50 values for the compounds of the invention (including racemic mixtures as well as separated enantiomers) that were obtained from cell lines transfected with the human V1a or V2 receptor: […]

Another test has as its target T2, human V2 receptor (Homo sapiens, UniProt P30518).
T2 construct: expressed in transfected cells; host or cells: CHO K1 (Chinese hamster ovary) expressing firefly luciferase under a CRE-responsive promoter
Description: Cellular in vitro assay for determining vasopressin receptor activity (V2 cell line, CRE-luciferase). It counts as cell-based. Conditions: CHO cell line transfected with the human V2 receptor; agonist [Arg8]-vasopressin at EC50 concentration; 3 hours incubation; read-out: IC50 hV2. The procedure:
as §1, §2, §3
Vasopressin V2 Receptor Cell Lines:
On the day before the assay, the cells are plated out in culture medium (DMEM/F12, 2% FCS, 2 mM glutamine, 10 mM HEPES) in 384-well microtiter plates and kept in a cell incubator (96% humidity, 5% v/v CO2, 37° C.). On the day of the assay, test compounds in various concentrations and the agonist [Arg^8]-vasopressin at EC50 concentration are added together to the wells, and plates are incubated for 3 hours in a cell incubator. Upon addition of the cell lysis reagent Triton™ and the substrate luciferin, luminescence of firefly luciferase is measured in a luminometer.
as §4

T2 sequence (P30518 whole entry): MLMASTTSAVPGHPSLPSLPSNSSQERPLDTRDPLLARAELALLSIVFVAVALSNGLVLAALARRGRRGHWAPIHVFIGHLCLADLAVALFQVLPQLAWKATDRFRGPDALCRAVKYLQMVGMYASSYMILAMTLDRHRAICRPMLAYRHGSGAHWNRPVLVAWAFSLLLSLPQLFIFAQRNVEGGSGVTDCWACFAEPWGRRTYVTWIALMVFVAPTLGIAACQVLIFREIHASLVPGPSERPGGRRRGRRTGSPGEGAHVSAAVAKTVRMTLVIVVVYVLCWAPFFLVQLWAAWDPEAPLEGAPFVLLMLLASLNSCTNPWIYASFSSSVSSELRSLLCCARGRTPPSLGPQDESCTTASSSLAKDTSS
T1 sequence (P37288 whole entry): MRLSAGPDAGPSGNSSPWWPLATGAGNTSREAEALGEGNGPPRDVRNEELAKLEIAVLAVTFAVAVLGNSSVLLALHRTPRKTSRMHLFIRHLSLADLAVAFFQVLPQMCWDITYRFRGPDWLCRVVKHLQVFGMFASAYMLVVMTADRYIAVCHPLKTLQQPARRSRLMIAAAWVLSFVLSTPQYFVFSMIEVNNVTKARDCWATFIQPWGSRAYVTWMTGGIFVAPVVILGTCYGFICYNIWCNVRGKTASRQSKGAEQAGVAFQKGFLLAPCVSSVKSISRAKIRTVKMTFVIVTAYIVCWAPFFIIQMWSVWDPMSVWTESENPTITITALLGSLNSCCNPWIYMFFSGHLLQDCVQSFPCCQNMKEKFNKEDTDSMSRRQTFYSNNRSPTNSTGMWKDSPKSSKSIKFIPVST

A word on the IC50: it is the concentration at which inhibition is half-maximal. `COc1cccnc1-n1nc(Cn2nc(-c3ccc(Cl)cc3)n(C[C@H](O)C(F)(F)F)c2=O)nc1C(N)=O` [Example 4, 3-({3-(4-Chlorophenyl)-5-oxo-4-[(2S)-3,3,3-trifluoro-2-hydroxypropyl]-4,5-dihydro-1H-1,2,4-triazol-1-yl}methyl)-1-(3-methoxypyridin-2-yl)-1H-1,2,4-triazole-5-carboxamide]: at human V1a receptor, the IC50 came out at 7.2 nM and the “ratio IC50 hV2/hV1a” value was 3.8. The IC50 on human V2 receptor was determined as 27 nM.
The matching figures for `NC(=O)c1nc(Cn2nc(-c3ccc(Cl)cc3)n(C[C@H](O)C(F)(F)F)c2=O)nn1-c1c(F)cccc1F` [Example 25, 3-({3-(4-Chlorophenyl)-5-oxo-4-[(2S)-3,3,3-trifluoro-2-hydroxypropyl]-4,5-dihydro-1H-1,2,4-triazol-1-yl}methyl)-1-(2,6-difluorophenyl)-1H-1,2,4-triazole-5-carboxamide]: 2.95 nM, 2.2 and 6.45 nM.
On to `NC(=O)c1nc(Cn2nc(-c3ccc(Cl)cc3)n(C[C@H](O)C(F)(F)F)c2=O)nn1-c1c(Cl)cccc1Cl` [Example 22, 3-({3-(4-Chlorophenyl)-5-oxo-4-[(2S)-3,3,3-trifluoro-2-hydroxypropyl]-4,5-dihydro-1H-1,2,4-triazol-1-yl}methyl)-1-(2,6-dichlorophenyl)-1H-1,2,4-triazole-5-carboxamide], for which, on human V1a receptor, the IC50 is 1.65 nM and the “ratio IC50 hV2/hV1a” value came to 2.2. Moreover, the IC50 on human V2 receptor is 3.63 nM.
The matching figures for `CSc1ccccc1-n1nc(Cn2nc(-c3ccc(Cl)cc3)n(C[C@H](O)C(F)(F)F)c2=O)nc1C(N)=O` [Example 18, 3-({3-(4-Chlorophenyl)-5-oxo-4-[(2S)-3,3,3-trifluoro-2-hydroxypropyl]-4,5-dihydro-1H-1,2,4-triazol-1-yl}methyl)-1-[2-(methylsulfanyl)phenyl]-1H-1,2,4-triazole-5-carboxamide]: 0.54 nM, 3.1 and 1.65 nM.
As for `NC(=O)c1nc(Cn2nc(-c3ccc(Cl)cc3)n(CC(=O)C(F)(F)F)c2=O)nn1-c1ccccc1Cl` [Example 37, 1-(2-Chlorophenyl)-3-{[3-(4-chlorophenyl)-5-oxo-4-(3,3,3-trifluoro-2-oxopropyl)-4,5-dihydro-1H-1,2,4-triazol-1-yl]methyll-1H-1,2,4-triazole-5-carboxamide (ketone form) or 1-(2-Chlorophenyl)-3-{[3-(4-Chlorophenyl)-5-oxo-4-(3,3,3-trifluoro-2,2-dihydroxypropyl)-4,5-dihydro-1H-1,2,4-triazol-1-yl]methyl}-1H-1,2,4-triazole-5-carboxamide (hydrate form)], the half-inhibitory concentration (IC50) was found to be 1.37 nM at human V1a receptor and 13.5 nM on human V2 receptor. Besides, the “ratio IC50 hV2/hV1a” value on human V1a receptor is 9.9.
For `NC(=O)c1nc(Cn2nc(-c3ccc(Cl)cc3)n(C[C@H](O)C(F)(F)F)c2=O)nn1-c1ccncc1Cl` [Example 6, 3-({3-(4-Chlorophenyl)-5-oxo-4-[(2S)-3,3,3-trifluoro-2-hydroxypropyl]-4,5-dihydro-1H-1,2,4-triazol-1-yl}methyl)-1-(3-chloropyridin-4-yl)-1H-1,2,4-triazole-5-carboxamide] the same measures were 27 nM, 390 nM and 14.4.
The matching figures for `CC(C)c1ccccc1-n1nc(Cn2nc(-c3ccc(Cl)cc3)n(C[C@H](O)C(F)(F)F)c2=O)nc1C(N)=O` [Example 28, 3-({3-(4-Chlorophenyl)-5-oxo-4-[(2S)-3,3,3-trifluoro-2-hydroxypropyl]-4,5-dihydro-1H-1,2,4-triazol-1-yl}methyl)-1-(2-isopropylphenyl)-1H-1,2,4-triazole-5-carboxamide]: 4.85 nM, 64.5 nM and 13.3.
On to `CCOc1ncccc1-n1nc(Cn2nc(-c3ccc(Cl)cc3)n(C[C@H](O)C(F)(F)F)c2=O)nc1C(N)=O` [Example 13, 3-({3-(4-Chlorophenyl)-5-oxo-4-[(2S)-3,3,3-trifluoro-2-hydroxypropyl]-4,5-dihydro-1H-1,2,4-triazol-1-yl}methyl)-1-(2-ethoxypyridin-3-yl)-1H-1,2,4-triazole-5-carboxamide], for which the figures for the IC50 on human V1a receptor and at human V2 receptor were 135 nM and 525 nM, respectively. Further, the “ratio IC50 hV2/hV1a” value on human V1a receptor stood at 3.9.
The matching figures for `NC(=O)c1nc(Cn2nc(-c3ccc(Cl)cc3)n(C[C@H](O)C(F)(F)F)c2=O)nn1-c1ccccc1F` [Example 29, 3-({3-(4-Chlorophenyl)-5-oxo-4-[(2S)-3,3,3-trifluoro-2-hydroxypropyl]-4,5-dihydro-1H-1,2,4-triazol-1-yl}methyl)-1-(2-fluorophenyl)-1H-1,2,4-triazole-5-carboxamide]: 13.3 nM, 24.1 nM and 1.8.
The matching figures for `CCc1cccnc1-n1nc(Cn2nc(-c3ccc(Cl)cc3)n(C[C@H](O)C(F)(F)F)c2=O)nc1C(N)=O` [Example 1, 3-({3-(4-Chlorophenyl)-5-oxo-4-[(2S)-3,3,3-trifluoro-2-hydroxypropyl]-4,5-dihydro-1H-1,2,4-triazol-1-yl}methyl)-1-(3-ethylpyridin-2-yl)-1H-1,2,4-triazole-5-carboxamide]: 5.1 nM, 8.73 nM and 1.7.
For `COc1nccnc1-n1nc(Cn2nc(-c3ccc(Cl)cc3)n(C[C@H](O)C(F)(F)F)c2=O)nc1C(N)=O` [Example 9, 3-({3-(4-Chlorophenyl)-5-oxo-4-[(2S)-3,3,3-trifluoro-2-hydroxypropyl]-4,5-dihydro-1H-1,2,4-triazol-1-yl}methyl)-1-(3-methoxypyrazin-2-yl)-1H-1,2,4-triazole-5-carboxamide] the same measures were 93.5 nM, 245 nM and 2.6.
As to `CCc1cccc(C)c1-n1nc(Cn2nc(-c3ccc(Cl)cc3)n(C[C@H](O)C(F)(F)F)c2=O)nc1C(N)=O` [Example 31, 3-({3-(4-Chlorophenyl)-5-oxo-4-[(2S)-3,3,3-trifluoro-2-hydroxypropyl]-4,5-dihydro-1H-1,2,4-triazol-1-yl}methyl)-1-(2-ethyl-6-methylphenyl)-1H-1,2,4-triazole-5-carboxamide], at human V1a receptor, the 50% inhibitory concentration (IC50) is 14.5 nM and the “ratio IC50 hV2/hV1a” value is recorded as 0.5. Further, the half-maximal inhibitory concentration (IC50) on human V2 receptor worked out at 7.95 nM.
As to `NC(=O)c1nc(Cn2nc(-c3ccc(Cl)cc3)n(C[C@H](O)C(F)(F)F)c2=O)nn1-c1ccccc1Br` [Example 17, 1-(2-Bromophenyl)-3-({3-(4-chlorophenyl)-5-oxo-4-[(2S)-3,3,3-trifluoro-2-hydroxypropyl]-4,5-dihydro-1H-1,2,4-triazol-1-yl}methyl)-1H-1,2,4-triazole-5-carboxamide], at human V1a receptor, the IC50 was determined as 0.45 nM and the “ratio IC50 hV2/hV1a” value is 15.6. On human V2 receptor, the IC50 was found to be 7 nM.
The matching figures for `NC(=O)c1nc(Cn2nc(-c3ccc(Cl)cc3)n(C[C@H](O)C(F)(F)F)c2=O)nn1-c1ccccc1` [Example 30, 3-({3-(4-Chlorophenyl)-5-oxo-4-[(2S)-3,3,3-trifluoro-2-hydroxypropyl]-4,5-dihydro-1H-1,2,4-triazol-1-yl}methyl)-1-phenyl-1H-1,2,4-triazole-5-carboxamide]: 14 nM, 0.7 and 9.75 nM.
